≈ marks a conversion by molar mass, not a printed value.
How the values were obtained:
[1] = Cmax in rat at 3 mg/kg, po; type: ADME, organism-based; set-up: dose 3 mg/kg, route oral; details: in vivo
[2] = molecular target: Sphingosine 1-phosphate receptor 1 (Homo sapiens, UniProt P21453); assay: Antagonist activity against S1P1R in human U2OS cells expressing beta-arrestin/green fluorescent protein assessed as effect on S1P-induced beta-arrestin GFP relocalization incubated for 30 mins by Hoechst 33342 staining based receptor translocation assay; type: cell-based
Chain of Sphingosine 1-phosphate receptor 1 (P21453 whole entry): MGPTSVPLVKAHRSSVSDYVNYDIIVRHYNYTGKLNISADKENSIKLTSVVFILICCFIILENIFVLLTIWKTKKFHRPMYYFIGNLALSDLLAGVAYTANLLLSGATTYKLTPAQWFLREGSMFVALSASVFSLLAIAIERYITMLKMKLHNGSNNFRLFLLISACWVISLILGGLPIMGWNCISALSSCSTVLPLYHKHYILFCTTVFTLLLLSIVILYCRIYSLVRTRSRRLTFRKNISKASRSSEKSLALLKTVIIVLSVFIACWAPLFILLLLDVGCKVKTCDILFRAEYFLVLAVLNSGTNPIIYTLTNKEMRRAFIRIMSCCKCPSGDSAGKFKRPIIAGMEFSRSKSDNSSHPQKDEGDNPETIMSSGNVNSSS

[3] = Apparent permeability from basolateral to apical side in human Caco2 cells; type: ADME, cell-based; details: Caco-2
[4] = Lipophilicity, log D of the compound; type: physicochemical; details: octanol/water
[5] = Half life in rat at 1 mg/kg, iv; type: ADME, organism-based; set-up: dose 1 mg/kg, route intravenous; details: in vivo
[6] = Intrinsic clearance in rat hepatocytes assessed per 10^6 cells; type: ADME, cell-based, Hepatocyte; details: read-out: CLH
Rattus norvegicus [7] = assay: Oral bioavailability in rat at 3 mg/kg; type: ADME, organism-based; details: in vivo
[8] = Protein binding in rat plasma assessed as unbound fraction; type: ADME, cell-free
Liver microsome = assay: (§1) Intrinsic clearance in human liver microsomes; type: ADME; details: microsomes
[9] = Solubility in pH 7.4 buffer; type: physicochemical
[10] = Protein binding in human plasma assessed as unbound fraction; type: ADME, cell-free
[11] = Volume of distribution at steady state in rat at 1 mg/kg, iv; type: ADME, organism-based; set-up: dose 1 mg/kg, route intravenous; details: in vivo, read-out: Vdss
[12] = Apparent permeability from apical to basolateral side in human Caco2 cells; type: ADME, cell-based; details: Caco-2
Rattus norvegicus [13] = assay: AUC in rat at 3 mg/kg, po; type: ADME, organism-based, Plasma; set-up: dose 3 mg/kg, route oral; details: in vivo
[14] = as §1; type: ADME; details: liver microsomes, read-out: CLH
[15] = Intrinsic clearance in human hepatocytes assessed per 10^6 cells; type: ADME, cell-based, Hepatocyte; details: read-out: CLH

SMILES	EC50 [2]	also measured
CCc1nnc([C@@H](C)NS(=O)(=O)c2ccc(Cl)cc2)n1CC	250 nM	Cmax [1]: 1600 nM; Papp B→A [3]: 22.5 ×10⁻⁶ cm/s; logD [4]: 1.4; half-life [5]: 1.4 h; hepatocyte CLint [6]: 10.2 µL/min/1e6 cells; F (Rattus norvegicus [7]): 11%; fraction unbound [8]: 0.5; microsomal CLint (Liver microsome): 5.5 µL/min/mg; solubility [9]: > 600 µM; fraction unbound [10]: 0.34; Vd [11]: 0.7 L/kg; Papp A→B [12]: 11.1 ×10⁻⁶ cm/s; AUC (Rattus norvegicus [13]): 2.7 µM·h
CCc1nnc([C@H](C)NS(=O)(=O)c2ccc(Cl)cc2)n1CC	> 33000 nM	
C=CCSc1nnc(C(Cc2ccccc2)NS(=O)(=O)c2ccc(Cl)cc2)n1C (racemic)	1030 nM	
Cn1cnnc1C(Cc1ccccc1)NS(=O)(=O)c1ccc(Cl)cc1 (racemic)	22100 nM	
Cc1nnc(C(Cc2ccccc2)NS(=O)(=O)c2ccc(Cl)cc2)n1C (racemic)	1830 nM	
CCc1nnc(C(Cc2ccccc2)NS(=O)(=O)c2ccc(Cl)cc2)n1C (racemic)	340 nM	
CCCCc1nnc(C(Cc2ccccc2)NS(=O)(=O)c2ccc(Cl)cc2)n1C (racemic)	3230 nM	
Cn1c(C(Cc2ccccc2)NS(=O)(=O)c2ccc(Cl)cc2)nnc1C(F)(F)F (racemic)	3170 nM	
CCn1c(C)nnc1C(Cc1ccccc1)NS(=O)(=O)c1ccc(Cl)cc1 (racemic)	460 nM	
CCCn1c(C)nnc1C(Cc1ccccc1)NS(=O)(=O)c1ccc(Cl)cc1 (racemic)	2690 nM	
Cc1nnc(C(Cc2ccccc2)NS(=O)(=O)c2ccc(Cl)cc2)n1C(C)C (racemic)	6340 nM	
Cc1nnc(C(Cc2ccccc2)NS(=O)(=O)c2ccc(Cl)cc2)n1Cc1ccccc1 (racemic)	> 100000 nM	
CCc1nnc(C(Cc2ccccc2)NS(=O)(=O)c2ccc(Cl)cc2)n1CC (racemic)	220 nM	
CCn1c(C)nnc1C(Cc1ccc(F)cc1)NS(=O)(=O)c1ccc(Cl)cc1 (racemic)	490 nM	
CCn1c(C)nnc1C(Cc1cccnc1)NS(=O)(=O)c1ccc(Cl)cc1 (racemic)	2370 nM	
C=CCC(NS(=O)(=O)c1ccc(Cl)cc1)c1nnc(C)n1CC (racemic)	2250 nM	
CCCC(NS(=O)(=O)c1ccc(Cl)cc1)c1nnc(C)n1CC (racemic)	6190 nM	
CCn1c(C)nnc1C(CC1CC1)NS(=O)(=O)c1ccc(Cl)cc1 (racemic)	7690 nM	
CCn1c(C)nnc1C(C)NS(=O)(=O)c1ccc(Cl)cc1 (racemic)	670 nM	microsomal CLint [14]: < 5 µL/min/mg; solubility [9]: 380 µM (≈ 125 µg/mL); hepatocyte CLint [15]: < 2 µL/min/1e6 cells
CCc1nnc(C(Cc2ccccc2)NS(=O)(=O)c2ccc(Cl)cc2)o1 (racemic)	15200 nM	microsomal CLint [14]: > 100 µL/min/mg
Cc1ncc(C(Cc2ccccc2)NS(=O)(=O)c2ccc(Cl)cc2)n1C (racemic)	> 100000 nM	microsomal CLint [14]: > 100 µL/min/mg
Cc1cnc(C(Cc2ccccc2)NS(=O)(=O)c2ccc(Cl)cc2)n1C (racemic)	1610 nM	microsomal CLint [14]: > 100 µL/min/mg
CCc1onc(C(C)NS(=O)(=O)c2ccc(Cl)cc2)c1CC (racemic)	3030 nM	microsomal CLint [14]: > 100 µL/min/mg
CCc1snc(C(C)NS(=O)(=O)c2ccc(Cl)cc2)c1CC (racemic)	720 nM	microsomal CLint [14]: > 100 µL/min/mg
CCc1[nH]nc(C(C)NS(=O)(=O)c2ccc(Cl)cc2)c1CC (racemic)	310 nM	microsomal CLint [14]: > 100 µL/min/mg
CCc1nnc(C(C)NS(=O)(=O)c2ccc(Cl)cc2)n1CC (racemic)	410 nM	
